Reference: US20200347033A1, “MODULATORS OF THE INTEGRATED STRESS PATHWAY” (Calico Life Sciences LLC, priority 2017, published 2020)

test system: HEK293T cells carrying the ATF4 luciferase reporter; experiment: ATF4-Luc assay (in vitro model of vanishing white matter disease); format: cell-based, human; conditions: HEK293T cells with ATF4 5'-UTR firefly luciferase reporter; 1 μg/mL tunicamycin; 7 hours; One Glo luminescence
Experimental: In order to test exemplary compounds of the invention in a cellular context, a stable VWMD cell line was first constructed. The ATF4 reporter was prepared by fusing the human full-length ATF4 5′-UTR (NCBI Accession No. BC022088.2) in front of the firefly luciferase (FLuc) coding sequence lacking the initiator methionine as described in Sidrauski et al (eLife 2013). The construct was used to produce recombinant retroviruses using standard methods and the resulting viral supernatant was used to transduce HEK293T cells, which were then subsequently selected with puromycin to generate a stable cell line.
HEK293T cells carrying the ATF4 luciferase reporter were plated on polylysine coated 384-well plates (Greiner Bio-one) at 30,000 cells per well. Cells were treated the next day with 1 μg/mL tunicamycin and 200 nM of a compound of Formula (I) for 7 hours. Luminescence was measured using One Glo (Promega) as specified by the manufacturer. Cells were maintained in DMEM with L-glutamine supplemented with 10% heat-inactivated FBS (Gibco) and Antibiotic-Antimycotic solution (Gibco).
Table 2 below summarizes the EC50 data obtained using the ATF4-Luc assay for exemplary compounds of the invention.

With “2-(4-chloro-3-fluorophenoxy)-N-[3-(5-chloro-1-hydroxy-3-oxo-1,3-dihydro-2H-isoindol-2-yl)bicyclo[1.1.1]pentan-1-yl]acetamide and 2-(4-chloro-3-fluorophenoxy)-N-[3-(5-chloro-3-hydroxy-1-oxo-,3-dihydro-2H-isoindol-2-yl)bicyclo[1.1.1]pentan-1-yl]acetamide [Compound 153]” the EC50 was > 2000 nM.

same assay, conditions: Homo sapiens, HEK-293T; HEK293T cells with ATF4 5'-UTR firefly luciferase reporter; 1 μg/mL tunicamycin; 7 hours; One Glo luminescence

Compared with `O=C(COc1ccc(Cl)c(F)c1)NC12CC(N3CC[C@@H](Oc4ccc(Cl)cc4)C3=O)(C1)C2` (single isomer, unassigned) [Compound 102], `O=C(COc1ccc(Cl)c(F)c1)NC12CC(N3CC[C@H](Oc4ccc(Cl)cc4)C3=O)(C1)C2` (single isomer, unassigned) [Compound 103] is lower in EC50: 250 to 1000 nM for the first, 50 to 250 nM for the second. The second is the more potent here.

`O=C(COc1ccc(Cl)c(F)c1)NC12CC(N3C(=O)c4cc(Cl)ccc4[C@@H]3O)(C1)C2` (single isomer, unassigned) [Compound 148, 2-(4-chloro-3-fluorophenoxy)-N-{3-[(1)-5-chloro-1-hydroxy-3-oxo-1,3-dihydro-2H-isoindol-2-yl]bicyclo[1.1.1]pentan-1-yl}acetamide] and `O=C(COc1ccc(Cl)c(F)c1)NC12CC(N3C(=O)c4cc(Cl)ccc4[C@H]3O)(C1)C2` (single isomer, unassigned) [Compound 151] cannot be ordered by EC50: > 2000 nM for the first, > 2000 nM for the second.

Compared with `O=C(COc1ccc(Cl)c(F)c1)NC12CC(N3C(=O)c4ccc(Cl)cc4[C@H]3O)(C1)C2` (single isomer, unassigned) [Compound 149], `O=C(COc1ccc(Cl)c(F)c1)NC12CC(N3C(=O)c4ccc(Cl)cc4[C@@H]3O)(C1)C2` (single isomer, unassigned) [Compound 150] is higher in EC50: 250 to 1000 nM for the first, 1000 to 2000 nM for the second.

First: O=C(COc1ccc(Cl)c(F)c1)NC12CCC(N3CC[C@@H](c4ccc(Cl)cc4)C3=O)(CC1)C[C@@H]2O (single isomer, unassigned) [Compound 154]
Second: O=C(COc1ccc(Cl)c(F)c1)NC12CCC(N3CC[C@H](c4ccc(Cl)cc4)C3=O)(CC1)C[C@@H]2O (single isomer, unassigned) [Compound 155]
The EC50 of the first is higher: 250 to 1000 nM for the first, < 50 nM for the second. The second is the more potent here.

Compared with `O=C(COc1ccc(Cl)c(F)c1)NC12CC(N3C[C@H](c4ccc(Cl)c(F)c4)OC3=O)(C1)C2` (single isomer, unassigned) [Compound 156], `O=C(COc1ccc(Cl)c(F)c1)NC12CC(N3C[C@@H](c4ccc(Cl)c(F)c4)OC3=O)(C1)C2` (single isomer, unassigned) [Compound 157] is lower in EC50: 250 to 1000 nM for the first, 50 to 250 nM for the second. The second is the more potent here.

First: O=C(COc1ccc(Cl)c(F)c1)NC12CC(N3CCC(Oc4ccc(Cl)c(F)c4)C3=O)(C1)C2 (stereo not shown) [Compound 100, 2-(4-chloro-3-fluorophenoxy)-N-{3-[3-(4-chloro-3-fluorophenoxy)-2-oxopyrrolidin-1-yl]bicyclo[1.1.1]pentan-1-yl}acetamide]
Second: O=C(COc1ccc(Cl)c(F)c1)NC12CC(N3CCC(Oc4ccc(C(F)(F)F)nc4)C3=O)(C1)C2 (stereo not shown) [Compound 101, 2-(4-chloro-3-fluorophenoxy)-N-[3-(2-oxo-3-{[6-(trifluoromethyl)pyridin-3-yl]oxy}pyrrolidin-1-yl)bicyclo[1.1.1]pentan-1-yl]acetamide]
The EC50 of the first is lower: 50 to 250 nM for the first, 250 to 1000 nM for the second. The first is the more potent here.

`Cc1nn(C)c(C)c1OC1CCN(C23CC(NC(=O)COc4ccc(Cl)c(F)c4)(C2)C3)C1=O` (stereo not shown) [Compound 104, 2-(4-chloro-3-fluorophenoxy)-N-(3-{2-oxo-3-[(1,3,5-trimethyl-1H-pyrazol-4-yl)oxy]pyrrolidin-1-yl}bicyclo[1.1.1]pentan-1-yl)acetamide] and `Cc1cc(OC2CCN(C34CC(NC(=O)COc5ccc(Cl)c(F)c5)(C3)C4)C2=O)no1` (stereo not shown) [Compound 105, 2-(4-chloro-3-fluorophenoxy)-N-(3-{3-[(5-methyl-1,2-oxazol-3-yl)oxy]-2-oxopyrrolidin-1-yl}bicyclo[1.1.1]pentan-1-yl)acetamide] cannot be ordered by EC50: > 2000 nM for the first, > 2000 nM for the second.

`Cn1cc(OC2CCN(C34CC(NC(=O)COc5ccc(Cl)c(F)c5)(C3)C4)C2=O)cn1` (stereo not shown) [Compound 106, 2-(4-chloro-3-fluorophenoxy)-N-(3-{3-[(1-methyl-H-pyrazol-4-yl)oxy]-2-oxopyrrolidin-1-yl}bicyclo[1.1.1]pentan-1-yl)acetamide] and `Cn1nc(C(F)(F)F)cc1OC1CCN(C23CC(NC(=O)COc4ccc(Cl)c(F)c4)(C2)C3)C1=O` (stereo not shown) [Compound 107, 2-(4-chloro-3-fluorophenoxy)-N-[3-(3-{[1-methyl-3-(trifluoromethyl)-1H-pyrazol-5-yl]oxy}-2-oxopyrrolidin-1-yl)bicyclo[1.1.1]pentan-1-yl]acetamide] cannot be ordered by EC50: > 2000 nM for the first, > 2000 nM for the second.

`O=C(COc1ccc(Cl)c(F)c1)NC12CC(N3CCN(c4ccc(Cl)c(F)c4)C3=O)(C1)C2` [Compound 108, 2-(4-chloro-3-fluorophenoxy)-N-{3-[3-(4-chloro-3-fluorophenyl)-2-oxoimidazolidin-1-yl]bicyclo[1.1.1]pentan-1-yl}acetamide] and `O=C(COc1ccc(Cl)c(F)c1)NC12CC(N3CCN(c4ccc(Cl)cc4)C3=O)(C1)C2` [Compound 114, 2-(4-chloro-3-fluorophenoxy)-N-{3-[3-(4-chlorophenyl)-2-oxoimidazolidin-1-yl]bicyclo[1.1.1]pentan-1-yl}acetamide] cannot be ordered by EC50: < 50 nM for the first, < 50 nM for the second.

Compared with `O=C(COc1ccc(Cl)c(F)c1)NC12CCC(N3CC(c4ccc(Cl)c(F)c4)=CC3=O)(CC1)C[C@@H]2O` [Compound 109, 2-(4-chloro-3-fluorophenoxy)-N-{(2S)-4-[4-(4-chloro-3-fluorophenyl)-2-oxo-2,5-dihydro-1H-pyrrol-1-yl]-2-hydroxybicyclo[2.2.2]octan-1-yl}acetamide], `O=C(COc1ccc(Cl)c(F)c1)NC12CC(N3CCC(c4ccc(F)c(F)c4)OC3=O)(C1)C2` (stereo not shown) [Compound 112, 2-(4-chloro-3-fluorophenoxy)-N-{3-[6-(3,4-difluorophenyl)-2-oxo-1,3-oxazinan-3-yl]bicyclo[1.1.1]pentan-1-yl}acetamide] is higher in EC50: < 50 nM for the first, > 2000 nM for the second.

First: O=C(COc1ccc(Cl)c(F)c1)NC12CC(N3C(=O)OC[C@@H]3c3ccc(Cl)c(Cl)c3)(C1)C2 [Compound 110, 2-(4-chloro-3-fluorophenoxy)-N-{3-[(4S)-4-(3,4-dichlorophenyl)-2-oxo-1,3-oxazolidin-3-yl]bicyclo[1.1.1]pentan-1-yl}acetamide]
Second: O=C(COc1ccc(Cl)c(F)c1)NC12CC(C3=NC(c4ccc(Cl)cc4)CO3)(C1)C2 (stereo not shown) [Compound 113, 2-(4-chloro-3-fluorophenoxy)-N-{3-[4-(4-chlorophenyl)-4,5-dihydro-1,3-oxazol-2-yl]bicyclo[1.1.1]pentan-1-yl}acetamide]
The EC50 of the first is higher: > 2000 nM for the first, 250 to 1000 nM for the second. The second is the more potent here.

First: O=C(COc1ccc(Cl)c(Cl)c1)NC12CC(N3CCN(Cc4ccc(Cl)cc4)C3=O)(C1)C2 [Compound 111, N-(3-{3-[(4-chlorophenyl)methyl]-2-oxoimidazolidin-1-yl}bicyclo[1.1.1]pentan-1-yl)-2-(3,4-dichlorophenoxy)acetamide]
Second: O=C(COc1ccc(Cl)c(F)c1)NC12CC(N3CCN(c4ccccc4)C3=O)(C1)C2 [Compound 115, 2-(4-chloro-3-fluorophenoxy)-N-[3-(2-oxo-3-phenylimidazolidin-1-yl)bicyclo[1.1.1]pentan-1-yl]acetamide]
The EC50 of the first is higher: > 2000 nM for the first, 250 to 1000 nM for the second.
